{
  "source": "patent US12377104B1",
  "about": "“Methods for treating a fatty liver disease” (Madrigal Pharmaceuticals, Inc., priority 2024, dated 2025)",
  "key": {"[1]": {"experiment": "MAESTRO-NASH: metabolic factors (heart rate, body weight, blood pressure) at week 52", "type": "in vivo, human", "conditions": "for Body weight, LS mean % CFB / Body weight, LS mean % CFB difference from PBO / DBP, LS mean % CFB / DBP, LS mean % CFB difference from PBO / Glucose, LS mean % CFB / Glucose, LS mean % CFB difference from PBO / HOMA-IR, LS mean % CFB / HOMA-IR, LS mean % CFB difference from PBO / HbA1c, LS mean % CFB / HbA1c, LS mean % CFB difference from PBO / Heart rate (electrocardiogram), LS mean % CFB / Heart rate (electrocardiogram), LS mean % CFB difference from PBO / Insulin, LS mean % CFB / Insulin, LS mean % CFB difference from PBO / SBP, LS mean % CFB / SBP, LS mean % CFB difference from PBO: week 52"}, "[2]": {"system": "NASH patients with and without possible MetALD", "experiment": "MAESTRO-NASH: possible MetALD subgroup", "type": "in vivo, human", "conditions": "for Fibrosis Improvement, % of patients / Fibrosis Improvement, number of patients / NASH Resolution, % of patients / NASH Resolution, number of patients: Week 52", "method": "Analyses were performed on 782 patients who had both a baseline and Week 52 biopsy. Patients with a self-declared consumption of alcohol ≤2 drinks/day for men and ≤1.5 drinks/day for women were included as per usual MASH diagnostic recommendations. However, in attempt to objectify undisclosed moderate alcohol consumption above those limits, at baseline or during the trial, CDT measurements were performed longitudinally in all patients over 52 weeks. Post-randomization, a phosphatidylethanol (PEth) test was performed in patients tested for alcohol consumption based on increased liver enzymes ALT, AST and/or GGT (<2%). Those with increased PEth were included as MetALD. Patients with baseline or post-baseline CDT>2.5% (ULN 2.47) and/or a PEth>20 ng/mL (ULN 20 ng/mL) were assigned to a “possible MetALD” subgroup (possible increased alcohol consumption)."}, "clinical": {"experiment": "clinical", "conditions": "human, in vivo", "from_the_text": "Following once daily doses, steady state was typically reached within 3 to 6 days of dosing."}, "[3]": {"conditions": "MASH/NASH (low alcohol), 80 mg (n = 224)"}, "[4]": {"conditions": "MASH/NASH (low alcohol), 100 mg"}, "[5]": {"conditions": "MASH/NASH (low alcohol), 100 mg (n = 228)"}, "[6]": {"conditions": "low or no alcohol consumption, 80 mg"}, "[7]": {"conditions": "low or no alcohol consumption, 100 mg"}},
  "data": [
    {"smiles": "CC(C)c1cc(Oc2c(Cl)cc(-n3nc(C#N)c(=O)[nH]c3=O)cc2Cl)n[nH]c1=O", "note": "[Resmetirom, 2-(3,5-dichloro-4-((5-isopropyl-6-oxo-1,6-dihydropyridazin-3-yl)oxy)phenyl)-3,5-dioxo-2,3,4,5-tetrahydro-1,2,4-triazine-6-carbonitrile]", "values": [
      {"measurement": "Body weight, LS mean % CFB", "setting": "[1]; 80 mg", "value": "−1.2", "unit": "%"},
      {"measurement": "Body weight, LS mean % CFB difference from PBO", "setting": "[1]; 80 mg", "value": 0.35, "unit": "%"},
      {"measurement": "DBP, LS mean % CFB", "setting": "[1]; 80 mg", "value": "−1.6", "unit": "%"},
      {"measurement": "DBP, LS mean % CFB difference from PBO", "setting": "[1]; 80 mg", "value": "−1.5", "unit": "%"},
      {"measurement": "Glucose, LS mean % CFB", "setting": "[1]; 80 mg", "value": 0.72, "unit": "%"},
      {"measurement": "Glucose, LS mean % CFB difference from PBO", "setting": "[1]; 80 mg", "value": 2.9, "unit": "%"},
      {"measurement": "HOMA-IR, LS mean % CFB", "setting": "[1]; 80 mg", "value": 9.1, "unit": "%"},
      {"measurement": "HOMA-IR, LS mean % CFB difference from PBO", "setting": "[1]; 80 mg", "value": "−5.3", "unit": "%"},
      {"measurement": "HbA1c, LS mean % CFB", "setting": "[1]; 80 mg", "value": 1.7, "unit": "%"},
      {"measurement": "HbA1c, LS mean % CFB difference from PBO", "setting": "[1]; 80 mg", "value": 0.19, "unit": "%"},
      {"measurement": "Heart rate (electrocardiogram), LS mean % CFB", "setting": "[1]; 80 mg", "value": "−1.7", "unit": "%"},
      {"measurement": "Heart rate (electrocardiogram), LS mean % CFB difference from PBO", "setting": "[1]; 80 mg", "value": "−1.5", "unit": "%"},
      {"measurement": "Insulin, LS mean % CFB", "setting": "[1]; 80 mg", "value": 2.8, "unit": "%"},
      {"measurement": "Insulin, LS mean % CFB difference from PBO", "setting": "[1]; 80 mg", "value": 2.3, "unit": "%"},
      {"measurement": "SBP, LS mean % CFB", "setting": "[1]; 80 mg", "value": "−1.9", "unit": "%"},
      {"measurement": "SBP, LS mean % CFB difference from PBO", "setting": "[1]; 80 mg", "value": 2.7, "unit": "%"},
      {"measurement": "Body weight, LS mean % CFB", "setting": "[1]; 100 mg", "value": "−1.8", "unit": "%"},
      {"measurement": "Body weight, LS mean % CFB difference from PBO", "setting": "[1]; 100 mg", "value": "−0.88", "unit": "%"},
      {"measurement": "DBP, LS mean % CFB", "setting": "[1]; 100 mg", "value": "−2.0", "unit": "%"},
      {"measurement": "DBP, LS mean % CFB difference from PBO", "setting": "[1]; 100 mg", "value": "−1.9", "unit": "%"},
      {"measurement": "Glucose, LS mean % CFB", "setting": "[1]; 100 mg", "value": "−3.4", "unit": "%"},
      {"measurement": "Glucose, LS mean % CFB difference from PBO", "setting": "[1]; 100 mg", "value": 5.6, "unit": "%"},
      {"measurement": "HOMA-IR, LS mean % CFB", "setting": "[1]; 100 mg", "value": 3.4, "unit": "%"},
      {"measurement": "HOMA-IR, LS mean % CFB difference from PBO", "setting": "[1]; 100 mg", "value": 11.0, "unit": "%"},
      {"measurement": "HbA1c, LS mean % CFB", "setting": "[1]; 100 mg", "value": 1.5, "unit": "%"},
      {"measurement": "HbA1c, LS mean % CFB difference from PBO", "setting": "[1]; 100 mg", "value": 0.05, "unit": "%"},
      {"measurement": "Heart rate (electrocardiogram), LS mean % CFB", "setting": "[1]; 100 mg", "value": 2.6, "unit": "%"},
      {"measurement": "Heart rate (electrocardiogram), LS mean % CFB difference from PBO", "setting": "[1]; 100 mg", "value": "−2.4", "unit": "%"},
      {"measurement": "Insulin, LS mean % CFB", "setting": "[1]; 100 mg", "value": 3.3, "unit": "%"},
      {"measurement": "Insulin, LS mean % CFB difference from PBO", "setting": "[1]; 100 mg", "value": 1.8, "unit": "%"},
      {"measurement": "SBP, LS mean % CFB", "setting": "[1]; 100 mg", "value": 2.1, "unit": "%"},
      {"measurement": "SBP, LS mean % CFB difference from PBO", "setting": "[1]; 100 mg", "value": 2.9, "unit": "%"},
      {"measurement": "blood pressure", "setting": "[1]; in vivo", "value": "slightly reduced"},
      {"measurement": "effect on heart rate or body weight", "setting": "[1]; in vivo", "value": "no effect on heart rate or body weight"},
      {"measurement": "MRI-PDFF ≥30% reduction, % of patients", "setting": "[2]; MASH/NASH (low alcohol), 80 mg", "value": "(59.2%)"},
      {"measurement": "MRI-PDFF ≥30% reduction, patients/evaluated", "setting": "[2]; MASH/NASH (low alcohol), 80 mg", "value": "109/184"},
      {"measurement": "Fibrosis Improvement, % of patients", "setting": "[2]; [3]", "value": 29, "unit": "%"},
      {"measurement": "Fibrosis Improvement, number of patients", "setting": "[2]; [3]", "value": 65},
      {"measurement": "NASH Resolution, % of patients", "setting": "[2]; [3]", "value": 29.9, "unit": "%"},
      {"measurement": "NASH Resolution, number of patients", "setting": "[2]; [3]", "value": 67},
      {"measurement": "MRI-PDFF ≥30% reduction, % of patients", "setting": "[2]; [4]", "value": "(71.2%)"},
      {"measurement": "MRI-PDFF ≥30% reduction, patients/evaluated", "setting": "[2]; [4]", "value": "136/191"},
      {"measurement": "Fibrosis Improvement, % of patients", "setting": "[2]; [5]", "value": 33.3, "unit": "%"},
      {"measurement": "Fibrosis Improvement, number of patients", "setting": "[2]; [5]", "value": 76},
      {"measurement": "NASH Resolution, % of patients", "setting": "[2]; [5]", "value": 36, "unit": "%"},
      {"measurement": "NASH Resolution, number of patients", "setting": "[2]; [5]", "value": 82},
      {"measurement": "MRI-PDFF ≥30% reduction, % of patients", "setting": "[2]; MetALD, 80 mg", "value": "(88%)"},
      {"measurement": "MRI-PDFF ≥30% reduction, patients/evaluated", "setting": "[2]; MetALD, 80 mg", "value": "23/26"},
      {"measurement": "Fibrosis Improvement, % of patients", "setting": "[2]; MetALD, 80 mg (n = 34)", "value": 35, "unit": "%"},
      {"measurement": "Fibrosis Improvement, number of patients", "setting": "[2]; MetALD, 80 mg (n = 34)", "value": 12},
      {"measurement": "NASH Resolution, % of patients", "setting": "[2]; MetALD, 80 mg (n = 34)", "value": 29, "unit": "%"},
      {"measurement": "NASH Resolution, number of patients", "setting": "[2]; MetALD, 80 mg (n = 34)", "value": 10},
      {"measurement": "MRI-PDFF ≥30% reduction, % of patients", "setting": "[2]; MetALD, 100 mg", "value": "(81%)"},
      {"measurement": "MRI-PDFF ≥30% reduction, patients/evaluated", "setting": "[2]; MetALD, 100 mg", "value": "13/16"},
      {"measurement": "Fibrosis Improvement, % of patients", "setting": "[2]; MetALD, 100 mg (n = 20)", "value": 30, "unit": "%"},
      {"measurement": "Fibrosis Improvement, number of patients", "setting": "[2]; MetALD, 100 mg (n = 20)", "value": 6},
      {"measurement": "NASH Resolution, % of patients", "setting": "[2]; MetALD, 100 mg (n = 20)", "value": 35, "unit": "%"},
      {"measurement": "NASH Resolution, number of patients", "setting": "[2]; MetALD, 100 mg (n = 20)", "value": 7},
      {"measurement": "NASH resolution, patients", "setting": "[2]; [6]", "value": 29.9, "unit": "%"},
      {"measurement": "fibrosis improvement, patients", "setting": "[2]; [6]", "value": 29, "unit": "%"},
      {"measurement": "≥30% reduction from baseline in MRI-PDFF, patients", "setting": "[2]; [6]", "value": 59.2, "unit": "%"},
      {"measurement": "NASH resolution, patients", "setting": "[2]; [7]", "value": 36, "unit": "%"},
      {"measurement": "fibrosis improvement, patients", "setting": "[2]; [7]", "value": 33.3, "unit": "%"},
      {"measurement": "≥30% reduction from baseline in MRI-PDFF, patients", "setting": "[2]; [7]", "value": 71.2, "unit": "%"},
      {"measurement": "NASH resolution, patients", "setting": "[2]; possible MetALD, 80 mg", "value": 29, "unit": "%"},
      {"measurement": "fibrosis improvement, patients", "setting": "[2]; possible MetALD, 80 mg", "value": 35, "unit": "%"},
      {"measurement": "≥30% reduction from baseline in MRI-PDFF, patients", "setting": "[2]; possible MetALD, 80 mg", "value": 88, "unit": "%"},
      {"measurement": "NASH resolution, patients", "setting": "[2]; possible MetALD, 100 mg", "value": 35, "unit": "%"},
      {"measurement": "fibrosis improvement, patients", "setting": "[2]; possible MetALD, 100 mg", "value": 30, "unit": "%"},
      {"measurement": "≥30% reduction from baseline in MRI-PDFF, patients", "setting": "[2]; possible MetALD, 100 mg", "value": 81, "unit": "%"},
      {"measurement": "Tmax", "setting": "clinical", "value": "~4", "unit": "h"},
      {"measurement": "half-life", "setting": "clinical", "value": 4.5, "unit": "h"},
      {"measurement": "AUC", "setting": "clinical; 80 mg", "value": 5850, "unit": "ng·h/mL"},
      {"measurement": "Cmax", "setting": "clinical; 80 mg", "value": 778, "unit": "ng/mL"},
      {"measurement": "AUC", "setting": "clinical; 100 mg", "value": 7780, "unit": "ng·h/mL"},
      {"measurement": "Cmax", "setting": "clinical; 100 mg", "value": 971, "unit": "ng/mL"}
    ]}
  ]
}
